The values that follow come from PMC8949258, “Synthesis, Characterization and Anticancer Efficacy Evaluation of Benzoxanthone Compounds toward Gastric Cancer SGC-7901” (Molecules, 2022).

For one series, the system named is SGC-7901. The experiment in a line: MTT in vitro cytotoxicity assay, SGC-7901. The class given is cell-based. Particulars: Homo sapiens, 48 h. As to the method:
(§1) Roswell Park Memorial Institute Medium (RPMI-1640) was used to culture BEL-7402 and SGC-7901 cell lines; and A549, HeLa and LO2 cells were cultured in Dulbecco’s Modified Eagle’s Medium (DMEM) containing 10% fetal bovine serum (FBS). Cell passage experiments were performed with trypsin every 2 days to maintain exponential growth. All cells were cultured until they reached logarithmic growth phase, unless specifically noted.
(§2) The cytotoxicity test was carried out according to a method described in the literature. The cells were seeded into 96-well micro-assay culture plates and grown overnight in a 5% CO2 incubator at 37 °C. Then, the cells were treated with gradient concentrations of the compounds when the cells grew to 60–70%. At 48 h posttreatment, the medium was removed and MTT solution was added. After 4 h, the absorbance at 490 nm was measured with a microplate reader. The IC50 values were calculated by SPSS (Statistical Product and Service Solutions) software.

In another series the test system is A549. Kind of series: MTT in vitro cytotoxicity assay, A549. The class given is cell-based. The conditions noted are these: Homo sapiens, 48 h. As to the method:
as §1, §2

For the next series, the system named is HeLa. The experiment in a line: MTT in vitro cytotoxicity assay, HeLa. It is filed as cell-based. The conditions noted are these: Homo sapiens, 48 h. As to the method: as §1, §2
In a further series the test system is BEL-7402. The experiment in a line: MTT in vitro cytotoxicity assay, BEL-7402. It is filed as cell-based. Particulars: Homo sapiens, 48 h. As to the method:
as §1, §2

In a further series the test system is LO2. Kind of series: MTT in vitro cytotoxicity assay, normal cell line LO2. The class given is cell-based. The conditions noted are these: Homo sapiens, L02, 48 h. As to the method: as §1, §2
A short description of series [1]: Partition coefficient by shake flask method. The class given is physicochemical. The conditions noted are these: octanol / phosphate buffer (0.129 M NaCl, pH = 7.4). As to the method:
Partition coefficients of compounds in octanol and phosphate buffer (0.129 M NaCl, pH = 7.4) were measured as described by Owellen and coworkers. The concentrations of the compounds in the octanol and phosphate buffer phases were determined three times using a UV/Vis spectrophotometer. The partition coefficients were calculated from the ratio Coct/CPBS, where Coct and CPBS were the concentrations of the compound in the octanol and phosphate buffer, respectively.

A short description of series [2]: pKa by potentiometric titration. The class given is physicochemical. The conditions noted are these: aqueous dimethyl sulfoxide (30% DMSO), 30% dimethyl sulfoxide, 0.15 M KCl. As to the method: The pKa values of the compounds were determined by potentiometric titration using a pH meter (Basic pH Meter PB-10, Sartorius) calibrated with standard buffers of pH 4.01, 6.86 and 9.18 [26]. The compounds were dissolved in aqueous dimethyl sulfoxide (30% dimethyl sulfoxide) at constant ionic strength (0.15 M KCl). The solution was pre-acidified to approximately pH = 2 with 0.24 M HCl, and titrated until pH = 12 with 0.06 M KOH.

A short description of series [3]: Stability in PBS by UV-Vis spectra. It is filed as physicochemical. The source says: The stability of 3b and 3c in PBS was studied by UV-Vis spectra.
For series [4], the system named is SGC-7901 cells. Kind of series: Cell cycle arrest by flow cytometry (PI). The class given is cell-based, human. The conditions noted are these: SGC-7901, IC50 concentrations, 24 h. As to the method: The cell cycle arrest was carried out using a method described in the literature. Briefly, SGC-7901 cells were treated with IC50 concentrations of compounds for 24 h. Then, the cells were harvested and fixed overnight in 70% ethanol at 4 °C. Next, the permeabilized cells were stained with PI/RNase buffer and the DNA content was determined on a flow cytometer. The results were analyzed by ModFit LT 4.0 (Verity Software House, Topsham, ME, USA).
Background: Flow cytometry measures light scatter and fluorescence of single cells or particles in a stream.

In series [5] the test system is SGC-7901 cells. The experiment in a line: Intracellular ROS levels (DCFH-DA). The class given is cell-based, human. The conditions noted are these: SGC-7901, IC50 concentrations, 24 h, versus control. As to the method:
SGC-7901 cells were seeded in 12-well plate at a density of 1.5 × 10^5 cells per well for 24 h. Then, the medium was replaced with medium containing compounds for 24 h. After treatment, the medium was removed and washed three times with PBS, and the cells were stained with 20 μM DCFH-DA for 30 min in the dark. Finally, the cells were imaged under ImageXpress Mico XLS system (MD company, San Jose, CA, USA).

A further series concerns P38 MAPK. Kind of series: Western blot of P38 MAPK expression. Particulars: SGC-7901, IC50 concentrations, 24 h. The class given is cell-based, human. As to the method: SGC-7901 cells were seeded in six-well plates for 24 h and incubated with IC50 concentrations of the compounds in the presence of 10% fetal bovine serum (FBS). The cells were then harvested in lysis buffer. After sonication, the samples were centrifuged for 20 min at 13,000× g. The protein concentration of the supernatant was determined by BCA (bicinchoninic acid) assay. Sodium dodecyl sulfate–polyacrylamide gel electrophoresis was carried out with loading equal amounts of proteins per lane. The gels were then transferred to poly (vinylidene difluoride) membranes (Millipore, Billerica, MA, USA) and blocked with 5% nonfat milk in TBST (20 mM Tris-HCl, 150 mM NaCl, 0.05% Tween 20, pH 8.0, Tween: polyoxyethylene monolaurate sorbaitan) buffer for 3 h. The polyvinylidene difluoride membranes were washed four times with TBST (4 × 10 min) and incubated with primary antibody solution at 4 °C overnight. They were then washed four times with TBST for a total of 30 min. The secondary antibodies were then conjugated with horseradish peroxidase (1:5000 dilution) for 70 min at room temperature and washed four times with TBST. The blots were visualized with the Amersham ECL ([…]) and western blotting detection reagents according to the manufacturer’s instructions.

Series [6] deals with SGC-7901 cells. The experiment in a line: Intracellular MDA assay. It is filed as cell-based, human. The conditions noted are these: SGC-7901, IC50 concentrations, 24 h. As to the method: (§3) After incubation with IC50 concentrations of 3b and 3c for 24 h, SGC-7901cells were lysed. The lysate was centrifuged for 15 min to collect the supernatant. The protein concentration was determined using a BCA Protein Assay Kit (Beyotime, Shanghai, China). A lipid peroxidation MDA assay kit (Beyotime, Shanghai, China) was used to detect MDA content, and a GSH and GSSG Assay Kit was used to detect intracellular GSH. SGC-7901 cells were incubated with IC50 concentrations of 3b and 3c for 24 h. Afterwards, the cells were lysed by the freeze-thaw method, and the lysate was centrifuged for 5 min to collect the supernatant. The absorbance was measured at 412 nm with a microplate reader.

In series [7] the test system is SGC-7901 cells. Kind of series: Intracellular GSH assay. It is filed as cell-based, human. Particulars: SGC-7901, IC50 concentrations, 24 h. As to the method: as §3
In series [8] the test system is SGC-7901 cells. The experiment in a line: Mitochondrial membrane potential assay (JC-1). It is filed as cell-based, human. Particulars: SGC-7901, IC50 concentrations, 24 h; control 5.85. As to the method: SGC-7901 cells were treated with IC50 concentrations of the compounds in 12-well plates for 24 h and were washed three times with cold PBS. Then, the cells were stained with 1 μg/mL JC-1 for 30 min at 37 °C in the dark. After that, the cells were washed twice with ice-cold PBS to remove residual stain and imaged under the ImageXpress Micro XLS system (MD company, San Jose, CA, USA).

Another series relates to CRT, HSP70 and HMGB1. Kind of series: Immunostaining of CRT, HSP70 and HMGB1 (immunogenic cell death). The class given is cell-based, human. Particulars: SGC-7901, IC50 concentrations, 24 h. As to the method: The SGC-7901 cells were cultured in 12-well plates and treated with IC50 concentrations of 3b and 3c for 24 h. The cells were fixed with 75% alcohol, and then washed and incubated with immunostaining blocker for 1 h. The primary antibody CRT Antibody, HSP70 Antibody and HMGB1 antibody were incubated for 12 h and then the cells were washed three times with PBS. Next, the secondary antibody FITC-labeled Goat Anti-Rabbit IgG was incubated in darkness for 1 h. The cells were washed three times with PBS. Finally, the nuclei were stained with Hoechst and photographed under Micro XLS System (MD company, San Jose, CA, USA).

Series [9] relates to SGC-7901 cells. Kind of series: ATP measurement. It is filed as cell-based, human. Particulars: SGC-7901, IC50 concentrations, 24 h. As to the method:
The SGC-7901 cells were cultured in six-well plates and treated with IC50 concentrations of 3b and 3c for 24 h. The cells were lysed for 10 min and centrifuged to obtain the supernatant. The prepared ATP detection working solution was added into the supernatant, 5 min late, the RLU value was measured.

For series [10], the system named is SGC-7901 cells. The experiment in a line: Intracellular Ca2+ levels (Fluo-3AM). It is filed as cell-based, human. Particulars: SGC-7901, IC50 concentrations, 24 h, versus control. As to the method: Fluo-3AM, a Ca^2+-sensitive fluorescent probe, was used to detect the level of intracellular Ca^2+. SGC-7901 cells were incubated with IC50 concentrations of the compounds for 24 h at 37 °C. Then, the cells were washed three times with PBS, incubated with Fluo-3AM, and observed under an ImageXpress Micro XLS system (MD company, San Jose, CA, USA). The fluorescence intensity was analyzed under a high content analysis system.

Series [11] concerns calf thymus DNA (CT-DNA). The experiment in a line: EB-competitive binding, luminescence titration. The conditions noted are these: EB-CT-DNA (DNA:EB = 1.25:1), compounds 6.62–50 μM. As to the method:
We used ethidium bromide (EB)-competing binding experiments to investigate the binding mode between the compounds and CT-DNA. It is well known that EB combines DNA molecules through a classic intercalative mode. Maintaining the DNA-EB solution concentration (DNA:EB = 1.25:1) and varying the concentrations of compounds (6.62–50 μM), the spectra were recorded after 5 min. The Stern-Volmer constants (Ksv) were calculated using the following Equation (3):F0/F = 1 + Ksv [Q](3) where F0 and F were the fluorescence intensities of the EB-CT DNA solution at 550–700 nm in the absence and presence of the compounds, respectively. [Q] was the concentration of compounds. In plots of F0/F versus [Q], Ksv was given by the ratio of the slope to the intercept.

Series [12] concerns calf thymus DNA (CT-DNA). Kind of series: Viscosity experiments with CT-DNA. It is filed as binding. The conditions noted are these: 25 (±0.1) °C, [DNA] = 200 μM, compounds 0 to 90 μM. As to the method: An ubberhold viscometer was used to measure the viscosity of the CT-DNA solution in the absence and presence of compounds, and the temperature was maintained at 25 ± 0.1 °C. The concentration of CT-DNA was 200 μM, and the concentrations of the compounds varied from 0 to 90 μM. The flow times were recorded with a digital stopwatch; each sample was measured three times to get the average time.

Series [13] deals with SGC-7901 cells. The experiment in a line: Cellular uptake (DAPI, fluorescence microscope). The class given is cell-based, human. The conditions noted are these: SGC-7901, IC50 concentrations, 24 h. As to the method:
Cellular uptake studies were performed according to a method described in the literature. SGC-7901 cells were placed in 24-well microassay culture plates and grown overnight at 37 in a 5% CO2 incubator. The compounds tested were then added to the wells. […] Upon completion of incubation, the wells were washed three times with phosphate buffered saline (PBS). After moving the culture medium, the cells were stained with 2-(4-amidinophenyl)-6-indolecarbamidine dihydrochloride (DAPI) and observed under fluorescence microscope.

For orientation: IC50 means the midpoint of a concentration-inhibition curve. Broadly, the logP is the decadic logarithm of the partition coefficient of the neutral form, usually between octanol and water. Read a high logP as higher lipophilicity.

Structures are written as SMILES.

Turning to `O=C(O)CCc1cccc2oc3ccc4ccccc4c3c(=O)c12` [Compound 3a, 3-(12-oxo-12H-benzo[a]xanthen-11-yl)propanoic acid], the IC50 with SGC-7901, in the series on A549, in the series on HeLa, in the series with BEL-7402 and in the series with LO2 was greater than 100 µM each time.

As to `COC(=O)c1ccc2c(ccc3oc4cccc(CCC(=O)O)c4c(=O)c32)c1` [Compound 3b, 3-(3-methoxycarbonyl-12-oxo-12H-benzo[a]xanthen-11-yl)propanoic acid], the IC50 with SGC-7901 is 45.6 ± 6.5 µM; in the series with A549, 51.5 ± 13.7 µM; in the series on HeLa, 68 ± 9.28 µM; with BEL-7402 it was greater than 100 µM; in the series on LO2, 38.1 ± 0.41 µM. The same compound displayed a logP in series [1] of 0.822. Also, in [2], the pKa was found to be 7.48. Also, in [3] (UV-Vis spectra at 0 and 48 h), the “stability in PBS” value is given as “stable in PBS”. Besides, in series [3] (precipitate observed at 48 h), the “solubility in PBS” value is “low solubility in PBS”. For the same compound, in the series on SGC-7901 cells [4], the “Percentage in the cell G0/G1” value is given as 74.6%. The “Percentage in the cell G2/M” value in the series on SGC-7901 cells [4] worked out at 17.4%. For the same compound, the “increase in the cell at G0/G1 phase” value with SGC-7901 cells [4] (versus control) stood at 17.7%. Moreover, in the series with SGC-7901 cells [5], the “increase of DCF fluorescence intensity” value is listed as “about 60.5%”. In addition, the “P38 MAPK expression” value with P38 MAPK is given as “significantly upregulated”. The compound also returned an MDA in the series on SGC-7901 cells [6] of 5.58 nmol/mg. The GSH concentration in the series with SGC-7901 cells [7] amounted to 69.96 µM. Also, in the series with SGC-7901 cells [8], the “ratio of red/green fluorescence (R), JC-1” value is reported as 3.01. Further, the “expression of CRT, HSP70 and HMGB1” value in the series with CRT, HSP70 and HMGB1 was “increased”. Also, the ATP concentration in the series on SGC-7901 cells [9] came out at 3.30 µM. Further, in the series with SGC-7901 cells [10], the “increase of Flu-3-AM fluorescence intensity (intracellular Ca2+)” value is on record as 1.67 times. Moreover, the “Stern-Volmer constant (Ksv)” value in the series with calf thymus DNA (CT-DNA) [11] is listed as 2.20 (±0.12) × 10^3 M^−1. Moreover, the “relative viscosity of CT-DNA with increasing compound concentration” value with calf thymus DNA (CT-DNA) [12] was “increased”. Moreover, the cellular uptake result in the series on SGC-7901 cells [13] was “enter the cytoplasm and accumulate in the nuclei”.
